Results taken from patent US11787837B2, “DCHBS-active esters of PEG compounds and their use” (Novo Nordisk A/S, priority 2016, dated 2023).
Each block holds one molecule with its values, some of them ahead of it.

Test: Hydrolytic stability of activated side chains (hydrolysis at pH ~10.3, UPLC/HPLC area comparison at 210 nm)
Type: physicochemical
Conditions: for hydrolytic stability (in words): basic conditions, pH 10.3; for activated side chain still remaining: pH 10.3, hydrolysis times around 1100-1300 minutes
Method: 0.1 mmol of each activated side chain was dissolved in 1.0 mL NMP. To this solution was added 5 mL 1M NaHCO3 buffer solution adjusted to pH 10.0 with NaOH. Solution was stirred (pH ˜10.3) with aliquots being taken at different time intervals to determine to which extent the various activated side chains were hydrolysed.
The reaction mixtures were analysed by UPLC (Example no. 2 and E—UPLC_A_1) and HPLC (Example no. 1, B, C, and D—HPLC_A_1), and the percent of hydrolysis for the various side chains was estimated by area comparison in UV detection at 210 nm. In each example, the combined areas for released activation group (peak A) and non-activated side chain (peak B), was compared to area for activated side chain (peak C). The retention times (rt-A, rt-B, and rt-C for the various peaks (peak A, peak B, and peak C) for each side chain are summarised as follows; 1 (rt-A=1.94 min, rt-B=7.18-7.25 min, rt-C=7.48 min, HPLC_A_1), 2 (rt-A=0.48 min, rt-B=2.11 min, rt-C=2.29 min, UPLC_A_1), B (only rt-B detected at time point for analysis), C (rt-A=4.40 min, rt-B=7.25 min, HPLC_A_1), D (rt-A=4.01 min, rt-B=7.25 min, rt-C=10.16 min, HPLC_A_1), E (rt-A=2.08 min, rt-B=2.10 min, rt-C=2.10 min, UPLC_A_1).
The hydrolytic stability of the activated side chains of Examples 1 and 8B to 8D was tested. The hydrolysis protocol from Example 9 was used for the stability test.

[1] = Table 5, hydrolysis time 1380 min, method UPLC_A_4

Compound: O=C(O)CCCCCCCCCCCCCCCCCCC(=O)NC[C@H]1CC[C@H](C(=O)N[C@@H](CCC(=O)NCCOCCOCC(=O)NCCOCCOCC(=O)Oc2c(Cl)cc(Cl)cc2S(=O)(=O)O)C(=O)O)CC1 [Example 1, 20-[[4-[[(1S)-1-carboxy-4-[2-[2-[2-[2-[2-[2-(2,4-dichloro-6-sulfo-phenoxy)-2-oxo-ethoxy]ethoxy]ethylamino]-2-oxo-ethoxy]ethoxy]ethylamino]-4-oxo-butyl]carbamoyl]cyclohexyl]methylamino]-20-oxo-icosanoic acid]
Hydrolysis (%) at pH 10.3 (Table 5, hydrolysis time 1269 min, method UPLC_A_1): 88.1%
hydrolytic stability (in words): much more stable against hydrolysis
Hydrolysis (%) at pH 10.3 (hydrolysis time 1269 min, NMP + 1M NaHCO3 buffer, pH ~10.3, HPLC_A_1): 88.1%
activated side chain still remaining: approximately 12%

Compound: O=C(O)CCCCCCCCCCCCCCCCC(=O)N[C@@H](CCC(=O)NCCOCCOCC(=O)NCCOCCOCC(=O)Oc1c(Cl)cc(Cl)cc1S(=O)(=O)O)C(=O)O [Example 2, 18-[[(1S)-1-carboxy-4-[2-[2-[2-[2-[2-[2-(2,4-dichloro-6-sulfo-phenoxy)-2-oxo-ethoxy]ethoxy]ethylamino]-2-oxo-ethoxy]ethoxy]ethylamino]-4-oxo-butyl]amino]-18-oxo-octadecanoic acid]
hydrolytic stability (in words): much more stable against hydrolysis
Hydrolysis (%) at pH 10.3 (hydrolysis time 1070 min, NMP + 1M NaHCO3 buffer, pH ~10.3, UPLC_A_1): 88.1%
activated side chain still remaining: approximately 12%

Compound: O=C(O)CCCCCCCCCCCCCCCCCCC(=O)NC[C@H]1CC[C@H](C(=O)N[C@@H](CCC(=O)NCCOCCOCC(=O)NCCOCCOCC(=O)ON2C(=O)CCC2=O)C(=O)O)CC1 [Example B, 20-[[4-[[(1S)-1-carboxy-4-[2-[2-[2-[2-[2-[2-(2,5-dioxopyrrolidin-1-yl)oxy-2-oxo-ethoxy]ethoxy]ethylamino]-2-oxo-ethoxy]ethoxy]ethylamino]-4-oxo-butyl]carbamoyl]cyclohexyl]methylamino]-20-oxo-icosanoic acid, reference compound]
hydrolytic stability (in words): hydrolytically very unstable
Hydrolysis (%) at pH 10.3 (hydrolysis time 0 min (within a minute), NMP + 1M NaHCO3 buffer, pH ~10.3, HPLC_A_1): Quantitative (more than 99% of the side chain being hydrolysed)

Compound: O=C(O)CCCCCCCCCCCCCCCCCCC(=O)NC[C@H]1CC[C@H](C(=O)N[C@@H](CCC(=O)NCCOCCOCC(=O)NCCOCCOCC(=O)Oc2ccc(Cl)cc2Cl)C(=O)O)CC1 [Example C, 20-[[4-[[(1S)-1-carboxy-4-[2-[2-[2-[2-[2-[2-(2,4-dichlorophenoxy)-2-oxo-ethoxy]ethoxy]ethylamino]-2-oxo-ethoxy]ethoxy]ethylamino]-4-oxo-butyl]carbamoyl]cyclohexyl]methylamino]-20-oxo-icosanoic acid, reference compound]
hydrolytic stability (in words): hydrolyse very fast and almost quantitatively
Hydrolysis (%) at pH 10.3 (hydrolysis time 0.16 min, NMP + 1M NaHCO3 buffer, pH ~10.3, HPLC_A_1): Quantitative (more than 99% of the side chain being hydrolysed)

Compound: O=C(O)CCCCCCCCCCCCCCCCCCC(=O)NC[C@H]1CC[C@H](C(=O)N[C@@H](CCC(=O)NCCOCCOCC(=O)NCCOCCOCC(=O)Oc2c(Cl)cccc2Cl)C(=O)O)CC1 [Example D, 20-[[4-[[(1S)-1-carboxy-4-[2-[2-[2-[2-[2-[2-(2,6-dichlorophenoxy)-2-oxo-ethoxy]ethoxy]ethylamino]-2-oxo-ethoxy]ethoxy]ethylamino]-4-oxo-butyl]carbamoyl]cyclohexyl]methylamino]-20-oxo-icosanoic acid, reference compound]
hydrolytic stability (in words): hydrolyse very fast and almost quantitatively
Hydrolysis (%) at pH 10.3 (hydrolysis time 2 min, NMP + 1M NaHCO3 buffer, pH ~10.3, HPLC_A_1): 93.4%

Compound: O=C(O)CCCCCCCCCCCCCCCCC(=O)N[C@@H](CCC(=O)NCCOCCOCC(=O)NCCOCCOCC(=O)Oc1c(Cl)cc(S(=O)(=O)O)cc1Cl)C(=O)O [Example E, 18-[[(1S)-1-carboxy-4-[2-[2-[2-[2-[2-[2-(2,6-dichloro-4-sulfo-phenoxy)-2-oxo-ethoxy]ethoxy]ethylamino]-2-oxo-ethoxy]ethoxy]ethylamino]-4-oxo-butyl]amino]-18-oxo-octadecanoic acid, reference compound]
Hydrolysis (%) at pH 10.3 (hydrolysis time 2.5 min, NMP + 1M NaHCO3 buffer, pH ~10.3, UPLC_A_1): Quantitative (more than 99% of the side chain being hydrolysed)

The remaining lines, values ahead:

Hydrolysis (%) at pH 10.3 [1]: 96%
Compound: COCC(=O)Oc1c(Cl)cc(Cl)cc1S(=O)(=O)O [Example 8B, 3,5-dichloro-2-(2-methoxyacetyl)oxy-benzenesulfonic acid]

Hydrolysis (%) at pH 10.3 [1]: 60%
Compound: CN(C)S(=O)(=O)c1cc(Cl)cc(Cl)c1OC(=O)COCCOCCNC(=O)COCCOCCNC(=O)CC[C@H](NC(=O)CCCCCCCCCCCCCCCCC(=O)O)C(=O)O [Example 8C]

Hydrolysis (%) at pH 10.3 (Table 5, hydrolysis time 1440 min, method UPLC_A_5): 67%
Compound: C#CCOCCOCCOCCOCCC(=O)Oc1c(Cl)cc(Cl)cc1S(=O)(=O)O [Example 8D, 3,5-dichloro-2-[3-[2-[2-(2-prop-2-ynoxyethoxy)ethoxy]ethoxy]propanoyloxy]benzenesulfonic acid]
